We go through four molecules from patent publication US20210401708A1, “Skin Anti-Aging Composition Containing Irilin B” (PHYTO CORPORATION INC., priority 2018, published 2021).

Test [1] deals with Collagenase isolated from mouse pancreases. Description: Measurement of anti-collagenase activity. It is filed as biochemical. As to the method:
Collagenase, used in the measurement of enzyme activity, was isolated from mouse pancreases. The synthetic peptide, N-(3-[2-Furyl]acryloyl)-Leu-Gly-Pro-Ala, was used as a substrate compound for an enzymatic reaction. A solution containing 50 mM Tricine, 10 mM CaCl2.H2O, and 400 mM NaCl (pH 7.5) dissolved therein was used as a buffer solution. The synthetic substrate was dissolved to a concentration of […] in the buffer solution, and then finally diluted to 75 μM. Collagenase was dissolved to a concentration of 1 unit/ml in tertiary distilled water at 4° C. Upon the test, the collagenase diluted to a final concentration of 0.05 unit/ml in the buffer solution was used. […] In addition, the concentration of retinol (Sigma Co.), which was a positive control known as an anti-collagenase substance, was 10 μg/ml or 20 μg/ml in the test. The reaction was carried out in 96-well UV plates (Corning Co.) at room temperature for 10 minutes. The absorbance was measured at 345 nm at intervals of 1 minute using a microplate spectrophotometer (Bio-Rad). The enzyme activity was determined by obtaining the maximal slope of absorbance over time. All enzymatic reactions were repeatedly carried out three times, and expressed as average values. The anti-collagenase activity was calculated as below:
Anti-collagenase activity (%)=[(absolute value of slope in control−absolute value of slope in test sample)/absolute value of slope in control]×100 [Calculation Formula]

Test [2] deals with T1, elastase isolated from human leukocytes (Homo sapiens, UniProt P08246).
T1 construct: The elastase isolated from human leukocytes were used; from tissue; host or cells: human leukocytes
T1 sequence (P08246 30-267): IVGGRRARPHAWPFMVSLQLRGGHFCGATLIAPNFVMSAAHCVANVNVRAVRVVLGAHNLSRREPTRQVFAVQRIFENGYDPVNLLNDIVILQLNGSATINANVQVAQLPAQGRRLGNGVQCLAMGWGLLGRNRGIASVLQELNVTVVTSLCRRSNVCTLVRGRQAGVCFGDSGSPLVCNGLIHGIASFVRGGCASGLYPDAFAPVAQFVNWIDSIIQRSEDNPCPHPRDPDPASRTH
Description: Measurement of anti-elastase activity. It is filed as biochemical. How it is done: The anti-elastase activity (elastase being an elastin degradation enzyme) was tested as below. The elastase isolated from human leukocytes were used. The synthetic oligopeptide, MeOSuc-Ala-Ala-Pro-Val-pNA, was used as a substrate of an enzyme reaction. A 100 mM Tris (pH 7.5) solution was used as a buffer solution. Elastase was finally used at 0.2 mU using the buffer solution. In addition, the synthetic substrate of elastase was made into a 100 mM solution using […], and then diluted to a final concentration of 0.5 mM in the buffer solution. […] The concentration of quercetin (Sigma Co.), which was a positive control known as an anti-elastase substance, was 10 μg/ml or 20 μg/ml in the test. The reaction was carried out in 96-well UV plates (Corning Co.) at room temperature for 20 minutes. The absorbance was measured at 405 nm at intervals of 1 minute using a microplate spectrophotometer (Bio-Rad). The enzyme activity was determined by obtaining the maximal slope of absorbance over time. All enzymatic reactions were repeatedly carried out three times, and expressed as average values. The […] was calculated as below:
Anti-elastase activity (%)=[(absolute value of slope in control−absolute value of slope in test sample)/absolute value of slope in control]×100 [Calculation Formula]

The subject of test [3] is aquaporin 3 (AQP3). The test can be described thus: Expression level of skin moisturizing factor AQP3 in UVA-irradiated HaCaT cells (RT-PCR). The class given is cell-based, human. As to the method: (§1) In order to investigate the expression levels of aquaporin 3 (AQP3) and hyaluronic acid synthase 2 (HAS2), which are moisturizing factors involved in the migration of cell moisture, the test was performed using the human skin keratinocytes HaCaT cells (Korean Cell Line Bank). The HaCaT cells were incubated in Dulbecco's modified Eagle's medium (DEME, Gibco 1210-0038) containing 10% FBS. Cell incubation was carried out using a 5% CO2 incubator at 37° C. After the cells were treated with Irilin B and ultraviolet light (aging treatment: UVA: 5 J/cm^2), the levels of AQP3 and HAS2 expressed in the cells were measured. The expression levels were measured by extracting RNA from the HaCaT cells and performing real-time polymerase change reaction (RT-PCR). The test substance Irilin B was treated after UVA irradiation. Irilin B was in advance prepared into a 10 mg/ml stock solution by addition of DMEM. Upon the test, the cells were treated with the stock solution diluted to 1/1,000 to 1/500. […]
(§2) The gene expression test (RNA extraction and real-time polymerase chain reaction (PCR)) was performed in the following order:
(§3) i) RNA was extracted using TRIzol Reagent (Gibco, USA).
(§4) ii) The cDNA synthesis from the extracted RNA was performed using the ReverTra Ace reverse transcriptase kit (Toyobo, USA). […]

For test [4], the system named is hyaluronic acid synthase 2 (HAS2). Description: Expression level of skin moisturizing factor HAS2 in UVA-irradiated HaCaT cells (RT-PCR). The class given is cell-based, human. The conditions noted are these: UVA 5 J/cm^2, 10, 20, 40 μg/ml, 24 hours. As to the method: as §1, §2, §3, §4
The subject of test [5] is Human skin keratinocytes. Description: Keratinocyte differentiation promoting effect. It is filed as cell-based. The conditions noted are these: for Cell differentiation promoting effect (%): vs distilled water (0%). As to the method:
Human skin keratinocytes (Korean Cell Line Bank) were seeded in the CO2 incubation flask in which DMEM containing 10% FBS was placed. After the cells were grown to a confluency of about 80%, Irilin B at different concentrations (5, 10, 20, 50, 100 μg/ml) were added to the cells, followed by incubation for 3 days. Thereafter, the cells were treated with a reduction modifier, such as sodium dodecyl sulfate (SDS) and β-mercaptoethanol, to remove proteins. After the treatment, the remaining keratinocyte layer was suspended in distilled water, and then the absorbance was measured at 310 nm to analyze the peptide concentration. The increase by each sample was compared on the basis of the negative control, distilled water (0%). In the positive control, the cells were treated with 10 nM TGF-β known as a cell differentiation factor. All the tests of keratinocyte differentiation promoting effect were repeatedly carried out three times. The absorbance at 310 nm is expressed as a mean and standard deviation, and the cell differentiation promoting effect is expressed, using the following calculation formula, as an average value (%), in Table 4.
Cell differentiation promoting effect (%)=(absorbance value at 310 nm in test sample−absorbance value at 310 nm in negative control)×100 [Calculation Formula]

[6] abbreviates: both at 20 μg/ml, same conditions.

Take `COc1c(O)cc2occ(-c3ccccc3O)c(=O)c2c1O` [Irilin B, 5,7,2′-trihydroxy-6-methoxyisoflavone]: the figures for the “Anti-collagenase activity (%)” value in test [1] (5 μg/ml), in test [1] (10 μg/ml) and in test [1] (20 μg/ml) were 33.33%, 49.38% and 62.96%, respectively. In addition, the results for the “Enzyme activity (Absolute value of maximal slope of absorbance over time at 345 nm)” value in test [1] (5 μg/ml), in test [1] (10 μg/ml) and in test [1] (20 μg/ml) were 0.54, 0.41 and 0.30, respectively. In addition, in test [1] (setting [6]), the “anti-collagenase activity compared with retinol” value is reported as “about 2.05 fold”. Further, the “Enzyme activity (Absolute value of maximal slope of absorbance over time at 405 nm)” value in test [2] (5 μg/ml) is given as 0.85; in test [2] (10 μg/ml), 0.72; in test [2] (20 μg/ml), 0.54. The same molecule gave an inhibition at 5 µg/mL in test [2] (5 μg/ml) of 32.5%. Further, the inhibition at 10 µg/mL in test [2] (10 μg/ml) was determined as 42.9%. In test [2] (20 μg/ml), this molecule returned an inhibition at 20 µg/mL of 57.1%. In addition, the “anti-elastase activity compared with quercetin” value in test [2] (setting [6]) is “about 1.47 fold”. Moreover, in test [3] (UVA 5 J/cm^2, 40 μg/ml), the “expression level of AQP3 after UVA irradiation (FIG. 1)” value is on record as “again increased to a level in the control irradiated without UVA”. In test [3] (UVA 5 J/cm^2, 10, 20, 40 μg/ml, 24 hours), the “expression of AQP3 after UVA irradiation (FIG. 1)” value is given as “restored the UVA-reduced level of AQP3 in a dose dependent manner”. In test [4], the “expression of HAS2 after UVA irradiation (FIG. 2)” value is recorded as “again restored to a level in the normal control”. Further, the “Cell differentiation promoting effect (%)” value turned out to be 28.2% in test [5] (10 μg/ml, 3 days); 46.7% in test [5] (20 μg/ml, 3 days); 95.3% in test [5] (50 μg/ml, 3 days); 142.4% in test [5] (100 μg/ml, 3 days). Moreover, the “cell differentiation promoting effect compared with positive control (in words)” value in test [5] (100 μg/ml vs TGF-β 10 nM) was “equivalent to the cell differentiation factor TGF-β (10 nM)”. Also, in test [5] (5, 10, 20, 50, and 100 μg/ml), the “differentiation of keratinocytes (in words)” value is reported as “promoted the differentiation of keratinocytes”.

Regarding `O=c1c(O)c(-c2ccc(O)c(O)c2)oc2cc(O)cc(O)c12` [Quercetin, quercetin, reference compound], in test [2] (10 μg/ml), the “Enzyme activity (Absolute value of maximal slope of absorbance over time at 405 nm)” value stood at 0.88 and testing at 10 µg/mL gave an inhibition of 30.2 ± 3.14%. In test [2] (20 μg/ml), the “Enzyme activity (Absolute value of maximal slope of absorbance over time at 405 nm)” value is recorded as 0.77 and the inhibition at 20 µg/mL was 38.9%.

In the case of `CC1=C(/C=C/C(C)=C/C=C/C(C)=C/CO)C(C)(C)CCC1` [Retinol, reference compound], in test [1] (10 μg/ml), the “Anti-collagenase activity (%)” value was found to be 17.28 ± 0.85% and the “Enzyme activity (Absolute value of maximal slope of absorbance over time at 345 nm)” value was 0.67. Further, in test [1] (20 μg/ml), the “Anti-collagenase activity (%)” value was 30.86% and the “Enzyme activity (Absolute value of maximal slope of absorbance over time at 345 nm)” value came to 0.56.

On to transforming growth factor-β (TGF-β), for which the “Cell differentiation promoting effect (%)” value in test [5] (10 nM) came out at 144.7%.
